According to patent publication US20080311589A1, “METHOD OF HIGH-THROUGHPUT SCREENING OF MOLECULES AND COMPOUNDS FOR THEIR EFFECTS ON BIOLOGICAL AND CHEMICAL PROCESSES” (priority 1999, published 2008):

Experiments:
[1] = test system: Mv1Lu mink lung epithelial cells; assay: 384 well anti-BrdU cytoblot; format: cell-based; details: 384-well plate; TGF-β 16 hours, then 10 μM BrdU 16 hours
Description: FIG. 1. An immunodetection assay for DNA synthesis in high density arrays of mammalian cells. (a) Cartoon depiction of an anti-BrdU cytoblot. The thymine analog 5-bromodeoxyuridine (BrdU) is incorporated into the DNA of cells that are actively replicating their DNA. The cells are in the well, and BrdU is detected with a two step antibody binding procedure. The second antibody is conjugated to the enzyme horseradish peroxidase. In the presence of the chemiluminescent substrate luminol as well as hydrogen peroxide, light of wavelength 428 nm is generated. The light emission can be detected by exposing the plate to film. (b) A cytoblot can detect TGF-β's ability to prevent BrdU incorporation in mink lung epithelial cells. 2000 Mv1Lu mink lung epithelial cells were seeded in each well of a white, opaque 384 well plate. The cells were seeded in the indicated concentrations of TGF-β in 50 μL of DMEM with 1% fetal bovine serum (FBS), 100 units/mL penicillin G sodium, 100 μg/mL streptomycin sulfate and 100 μM each of the amino acids alanine, aspartic acid, glutamine, glycine, asparagine and proline (referred to throughout as 1% mink medium) and allowed to incubate at 37° C. with 5% CO2. After 16 hours, 5.5 μL of 100 μM BrdU in 1% mink medium was added to each well, for a final concentration of 10 μM BrdU. The cells were incubated at 37° C. with 5% CO2 for an additional 16 hours and then an anti-BrdU cytoblot protocol was performed (see protocol). Wells shown are magnified 4×.
FIG. 2. A cytoblot can detect the ability of numerous antiproliferative agents to inhibit BrdU incorporation. 2000 Mv1Lu mink lung epithelial cells were seeded in each well of a white, opaque 384 well plate. The cells were seeded in 40 μL of 1% mink media and immediately 40 μL of 2× stocks of the reagents shown was added to each well and the cells were allowed to incubate at 37° C. with 5% CO2. After 24 hours, 9 μL of 100 μM BrdU in 1% mink medium was added to each well, for a final concentration of 10 μM BrdU. The cells were incubated at 37° C. with 5% CO2 for an additional 16 hours and then an anti-BrdU cytoblot protocol was performed (see protocol). Wells shown are magnified 2.5×.
The ability of the cytoblot assay to detect changes in DNA synthesis was tested by measuring the incorporation of 5-bromodeoxyuridine (BrdU, Sigma Corporation, St. Louis, Mo., Cat.# B9285) into DNA in the presence or absence of the anti-mitogen transforming growth factor β (TGF-β). Mink lung cells, which are responsive to TGF-β, were seeded into each well of an opaque, white 384-well plate. The cells were subsequently treated with varying concentrations of TGF-β for 16 hours and then with 10 μM BrdU for 16 hours. […] The following protocols provide experimental detail. […]

phosphorylated nucleolin = assay: anti-phosphonucleolin (TG-3) cytoblot screen; format: cell-based, human
Protocol: A detection assay providing an indirect measure of the mitotic index of a population of cells was used to identify compounds that act as cell cycle inhibitors. By measuring the level of phosphorylation of a chromatin-associated protein using the anti-phosphonucleolin (TG-3) cytoblot (Stockwell et al. 1999), nucleolin the mitotic index (i.e., the number of cell in mitosis) was assessed. In brief, the library compounds were dissolved in DMSO (5 mg/ml) and pin-transferred from 384-well plates (Library plates #1-51) for a final concentration 5-10 ug/ml using a 384-polypropylene pin array (Genetix) into 384-well screening plates (Nunc) seeded with 4,000 A549 human lung carcinoma cells (ATCC) in DMEM+ and incubated for 22 hours at 37° C. with 5% CO2. Compounds from library plates #1-24 were pooled at two compounds per well, while compounds from library plates #25-51 were tested singly. […] The reactivity of the anti-phosphonucleolin antibody was measured using enhanced chemiluminescent detection (Amersham) after incubation of each well with a horseradish peroxidase-coupled anti-mouse IgM secondary antibody (Sigma) and addition of luminol. The relative luminescence produced from each well was measured on an automatic plate reader (LJL Analyst). […]

“TGF-β: anti-mitogen transforming growth factor β, multifunctional polypeptide signaling factor” was tested, and the BrdU incorporation [1] was “effectively prevented BrdU incorporation”.
For monastrol, the EC50 (effective concentration) in the cytoblot assay (phosphorylated nucleolin) was 22 µM.
